Test results as given in patent EP1849784A1, “Indoline-substituted pyrazoline compounds, their preparation and use as medicaments” (LABORATORIOS DEL DR. ESTEVE, S.A., priority 2006, dated 2007).

Key:
[1] = tested on: cannabinoid receptors; test: Mouse tetrad model, antagonistic effect against Win 55212-2; type: in vivo, Male NMRI mice; details: for Antagonistic Effect in (%): against Win 55212-2 (1.25 mg/kg intravenous), substance injected 5 minutes before, tetrad parameter not specified; for Antagonism (%): summary table 1
Description: Substances with affinity for cannabinoid receptors are known to produce a wide range of pharmacological effects. It is also known that intravenous administration of a substance with affinity for cannabinoid receptors in mice produces analgesia , hypothermia, sedation and catalepsy. Individually, none of these effects can be considered as proof that a tested substance has affinity for cannabinoid-receptors, since all of these effects are common for various classes of centrally active agents. However, substances, which show all of these effects, i.e. substances that are active in this so-called tetrad model are considered to have affinity for the cannabinoid receptors. It has further been shown that cannabinoid receptor antagonists are higly effective in blocking the effects of a cannabinoid agonist in the mouse tetrad model.
The tetrad model is described, for example, in the publication of A. C. Howlett et al, International Union of Pharmacology XXVII. Classification of Cannabinoid Receptors, Pharmacol Rev 54,161-202, 2002 and David R. Compton et al., "In-vivo Characterization of a Specific Cannabinoid Receptor Antagonist (SR141716A) :Inhibition of Tetrahydrocannbinol- induced Responses and Apparent Agonist Activity", J. Pharmacol. Exp. Ther. 277 , 2, 586-594, 1996. The corresponding parts of the description are hereby incorporated by reference.
Male NMRI mice with a weight of 20-30 g (Harlan, Barcelona, Spain) are used in all of the following experiments.
Before testing in the behavioral procedures given below, mice are acclimatized to the experimental setting. Pre-Treatment control values are determined for analgesia hot plate latency (in seconds), rectal temperature, sedation and catalepsy.
In order to determine the agonistic activty of the substance to be tested, the mice are injected intravenously with the substance to be tested or the vehicle alone. 15 minutes after injection, latency in hot plate analgesia is measured. Rectal temperature, sedation and catalepsy are measured 20 minutes after injection.
In order to determine the antagonistic activity the identical procedure is used as for the determination of the agonistic effects, but with the difference that the substance to be evaluated for its antagonistic activity is injectected 5 minutes before the intravenous injection of 1.25 mg/kg Win-55,212 a known cannabinoid-receptor agonist.
The hot plate analgesia is determined according to the method described in Woolfe D. et al. "The evaluation of analgesic action of pethidine hydrochloride (Demerol)", J. Pharmacol. Exp. Ther. 80, 300-307,1944. The respective description is hereby incorporated by reference and forms part of the present disclosure.
The mice are placed on a hot plate (Harvard Analgesimeter) at 55 ± 0.5 °C until they show a painful sensation by licking their paws or jumping and the time for these sensations to occur is recorded. This reading is considered the basal value (B). The maximum time limit the mice are allowed to remain on the hot plate in absence of any painful response is 40 seconds in order to prevent skin damage. This period is called the cut-off time (PC).
Fifteen minuts after the administration of the substance to be tested, the mice are again placed on the hot plate and the afore described procedure is repeated. This period is called the post-treatment reading (PT).
The degree of analgesia is calculated from the formula: % MPE of Analgesia = (PT-B)/(PC-B) × 100 [formula] MPE = Maximum possible effect.
Sedation and ataxia is determined according to the method described in Desmet L. K. C. et al. "Anticonvulsive properties of Cinarizine and Flunarizine in Rats and Mice", Arzneim. -Forsch. (Frug Res) 25, 9, 1975. The respective description is hereby incorporated by reference and forms part of the present disclosure.
The chosen scoring system is • 0: no ataxia; • 1: doubful; • 2: obvious calmness and quiet; • 3 pronounced ataxia; prior to as well as after treatment. […]

[2] = biological target: T1, CB1-Receptor (Homo sapiens, UniProt P21554); test: In-vitro determination of affinity to CB1-Receptor (radioligand binding); details: transfected human CB1 receptors; radioligand [^3H]-CP55940; read-out: CB1-Receptor Radiologand:[^3H]-CP55940 IC50
T1 construct: purchased Receptor Biology, Inc
T1 sequence (P21554 whole entry): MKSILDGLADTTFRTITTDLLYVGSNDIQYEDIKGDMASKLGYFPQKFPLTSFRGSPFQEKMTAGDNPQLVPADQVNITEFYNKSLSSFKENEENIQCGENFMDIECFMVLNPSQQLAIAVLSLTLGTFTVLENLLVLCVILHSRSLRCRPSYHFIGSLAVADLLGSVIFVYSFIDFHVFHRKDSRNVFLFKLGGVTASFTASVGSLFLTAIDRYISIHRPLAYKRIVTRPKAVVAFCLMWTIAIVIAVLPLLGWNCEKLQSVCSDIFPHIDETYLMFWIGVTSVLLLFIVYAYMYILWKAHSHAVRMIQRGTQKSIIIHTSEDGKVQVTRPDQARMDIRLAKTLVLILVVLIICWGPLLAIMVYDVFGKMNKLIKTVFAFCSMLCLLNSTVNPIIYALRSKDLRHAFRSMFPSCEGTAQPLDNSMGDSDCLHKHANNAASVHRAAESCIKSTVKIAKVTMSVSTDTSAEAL
Procedure: The in-vitro determination of the affinity of the inventive quaternary ammonium salts of substituted pyrazoline compounds to CB1/CB2Rezeptors is carried out as described in the publication of Ruth A. Ross, Heather C. Brockie et al., "Agonist-inverse agonist characterization at CB1 and CB2 cannabinoid receptors of L-759633, L759656 and AM630", British Journal of Pharmacology, 126, 665-672, (1999), whereby the transfected human CB1 and CB2 receptors of Receptor Biology, Inc. are used. The radioligand used for both receptors is [^3H]-CP55940. The respective parts of the description are hereby incorporated by reference and forms part of the present disclosure.

Row | Antagonistic Effect in (%) [1] [%] | Antagonism (%) [1] [%] | IC50 [2] [nM] | SMILES
1 | 33 | 33 | – | CC1Cc2ccccc2N1NC(=O)C1=NN(c2ccc(Cl)cc2Cl)C(c2ccc(Cl)cc2)C1 (stereo not shown) [Example 1, 5-(4-chlorophenyl)-1-(2,4-dichlorophenyl)-N-(2-methylindolin-1-yl)-4,5-dihydro-1H-pyrazole-3-carboxamide]
2 | 65±15 | 65 ± 15 | 100 | O=C(NN1CCc2ccccc21)C1=NN(c2ccc(Cl)cc2Cl)C(c2ccc(Cl)cc2)C1 (stereo not shown) [Example 2, 5-(4-chlorophenyl)-1-(2,4-dichlorophenyl)-N-(indolin-1-yl)-4,5-dihydro-1H-pyrazole-3-carboxamide]

Row | SMILES | Antagonistic Effect in (%) [1] [%] | Antagonism (%) [1] [%] | IC50 [2] [nM]
3 | O=C(NN1CCc2ccccc21)C1=NN(c2ccc(Cl)cc2Cl)C(c2ccc(Br)cc2)C1 (stereo not shown) [Example 6, 5-(4-bromophenyl)-1-(2,4-dichlorophenyl)-N-(indolin-1-yl)-4,5-dihydro-1H-pyrazole-3-carboxamide] | 88 ± 10 | 88 ± 10 | –
